Measured values from patent US8748575B2, “Therapeutic peptides” (Combimab, Inc., priority 2010, dated 2014).
Residues, ends and D or L forms follow the SMILES beside them.

Legend:
GC-C = target: T1, GC-C (Mus musculus, UniProt Q3UWA6); assay: Intestinal membrane 125I-STa competitive radioligand binding assay; set-up: key to I-125 binding assay: 1+ (lowest activity/potency); ++: Results are graded from 1+ (lowest activity/potency) to 5+ (highest activity/potency); +++: Results are graded from 1+ (lowest activity/potency) to 5+ (highest activity/potency); ++++: Results are graded from 1+ (lowest activity/potency) to 5+ (highest activity/potency); +++++: 5+ (highest activity/potency); settings: graded activity/potency, mouse intestinal membranes
T1 construct: freshly prepared mouse intestine membranes; from tissue; host or cells: mouse intestine (membrane preparation)
T1 sequence (Q3UWA6 20-1072): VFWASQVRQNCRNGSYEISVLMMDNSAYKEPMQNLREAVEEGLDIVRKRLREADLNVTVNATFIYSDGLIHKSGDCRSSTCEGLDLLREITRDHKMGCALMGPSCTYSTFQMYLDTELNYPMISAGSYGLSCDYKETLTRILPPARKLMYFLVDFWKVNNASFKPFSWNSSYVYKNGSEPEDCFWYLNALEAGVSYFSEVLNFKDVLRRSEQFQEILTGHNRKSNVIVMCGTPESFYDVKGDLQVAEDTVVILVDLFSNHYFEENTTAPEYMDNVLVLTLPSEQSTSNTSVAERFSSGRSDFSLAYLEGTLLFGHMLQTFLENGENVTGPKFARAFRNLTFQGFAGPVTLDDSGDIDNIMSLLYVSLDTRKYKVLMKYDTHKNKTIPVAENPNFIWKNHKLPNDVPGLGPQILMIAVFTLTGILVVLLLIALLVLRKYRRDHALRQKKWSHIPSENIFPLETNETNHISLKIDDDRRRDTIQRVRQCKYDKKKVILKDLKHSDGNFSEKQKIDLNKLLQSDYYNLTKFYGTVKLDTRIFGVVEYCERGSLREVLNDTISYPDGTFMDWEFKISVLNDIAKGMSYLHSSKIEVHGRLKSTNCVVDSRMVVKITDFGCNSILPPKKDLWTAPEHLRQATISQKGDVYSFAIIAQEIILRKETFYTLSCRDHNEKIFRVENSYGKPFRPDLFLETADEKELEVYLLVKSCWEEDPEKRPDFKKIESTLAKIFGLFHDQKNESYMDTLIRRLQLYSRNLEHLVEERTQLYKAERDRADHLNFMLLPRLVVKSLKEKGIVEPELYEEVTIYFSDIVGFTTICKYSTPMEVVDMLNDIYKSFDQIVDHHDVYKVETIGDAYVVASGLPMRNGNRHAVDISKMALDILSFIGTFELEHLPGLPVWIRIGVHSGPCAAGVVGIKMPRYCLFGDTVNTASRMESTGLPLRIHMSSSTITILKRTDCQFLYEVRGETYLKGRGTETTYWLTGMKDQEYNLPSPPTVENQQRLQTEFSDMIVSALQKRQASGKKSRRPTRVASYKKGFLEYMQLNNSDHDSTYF
Protocol: Intestinal membrane 1-125 labeled radioligand binding assay. The intestinal membrane radioligand binding assay was used to assess whether a novel compound could displace ^125I-STa from GC-C (Crane et al., 1992). Each analog was analyzed for its ability to displace ^125I-STa from GC-C in a competitive binding assay. ^125I-ST Displaced” was determined by co-incubating STa analogs (10 μM) with 50,000 DPM of ^125I-STa (1-18) in the presence of mouse intestinal membranes. The displacement (n=3) for each analog was determined relative to a vehicle control.
Membranes were prepared from freshly harvested mouse intestines by first washing away the blood or feces with ice-cold Dulbecco's PBS. Washed organs were minced with a single-edged razor blade, followed by homogenization on ice in 50 mM Tris, pH 7.6, containing 1 mM EDTA, 1 mM PMSF, 1 mM DTT. Debris was then removed by a 15 minute centrifugation at 3,000×G and 4° C. The supernatant is then passed through successively smaller needles (18 gauge through 25 gauge) and frozen at −70° C. until used as a tissue homogenate. If intended for use as isolated membranes, the above homogenate was centrifuged (100,000×G) at 4° C. for 1 hour while fresh and the pellet was re-suspended in homogenization buffer.
The assay was performed in 96 well filter plates which were pre-incubated overnight with 200 μl of 0.3% polyethylenimine (w/v) and washed three times by aspiration with 300 μl of Wash Buffer (150 mM NaCl, 20 mM Sodium Phosphate pH=7.2, 1 mM EDTA) immediately before use. Into each well of was added 50 μl of 3× Binding buffer (150 mM Tris-HCl pH=7.6, 1.98 mM Cysteamine, 0.3% Bacitracin, 1350 mM NaCl, 3 mM EDTA), 40 μl of double-distilled water, 10 μl of either double-distilled water or cold ligand (50 uM STa (5-18) in double-distilled water), 10 μl of increasing concentrations (125 DPM/ul to 50,000 DPM/ul) of radiolabeled 125I -STa (1-18) and finally 40 μl (approximately 2 mg protein/ml) of freshly prepared mouse intestine membranes. The plates were then incubated with mixing at 37 C for two hr, washed successively with six 200 μl aliquots of Wash Buffer and aspirated to dryness. The filter bottoms of each well were punched into individual borosilicate tubes and bound radioactivity determined in a gamma counter. Protein content was determined on an aliquot of the mouse intestine membranes used in the Biorad Protein Assay.

T84 cells (GC-C) = assay: Intact T84 cell cGMP accumulation assay; assay type: cell-based, Human; set-up: key to CGMP accumulation assay: 1+ (lowest activity/potency); ++: Results are graded from 1+ (lowest activity/potency) to 5+ (highest activity/potency); +++: Results are graded from 1+ (lowest activity/potency) to 5+ (highest activity/potency); ++++: Results are graded from 1+ (lowest activity/potency) to 5+ (highest activity/potency); +++++: 5+ (highest activity/potency); settings: for activity in the cGMP accumulation assay: FIG. 22, compared to STa peptide; for CGMP accumulation assay: graded activity/potency, T84 cells
Protocol: The intact T84 cell assay was used to detect the accumulation of cGMP, the product of agonism, upon interaction with a compound (Visweswariah et al., 1992). Human colorectal adenocarcinoma T84 cells were grown to confluence in a 24 well plate using DMEM/F12 medium supplemented with 10% FBS. The media was aspirated from each well and the cells were washed three times with Dulbecco's PBS (1×, no Ca2+ or Mg2+). The cells were then incubated for 30 minutes at 37° C. with 1 mM […] (IBMX) in Optimem medium (no FBS), either with or without potential antagonists. After incubation under these conditions, a 10× concentrated stock of a known GC-C agonist (e.g., STa (5-18)) in PBS was added to each well and the incubation continued for an additional 15 min at 37° C.
The reaction was stopped by the addition of 200 μL of Passive Lysis Buffer (Promega) to each well. The supernatant was removed for cGMP quantitation by RIA using ^125I-labeled cGMP 54 antibody relative to an external cGMP standard curve. The cells were scraped from the surface for protein content determination using a BioRad Protein Assay.

C[C@@H]1NC(=O)[C@@H]2CCCN2C(=O)[C@H](CC(N)=O)NC(=O)[C@@H]2CSSC[C@H](N)C(=O)N[C@H]3CSSC[C@H](NC1=O)C(=O)N[C@@H]([C@@H](C)O)C(=O)NCC(=O)N[C@H](C(=O)N[C@@H](Cc1ccc(O)cc1)C(=O)O)CSSC[C@H](NC(=O)[C@H](Cc1ccc(O)cc1)NC(=O)[C@H](CCC(=O)O)NC3=O)C(=O)N2 [Linaclotide, H2N Cys Cys Glu Tyr Cys Cys Asn Pro Ala Cys Thr Gly Cys Tyr COOH] (HELM PEPTIDE1{C.C.E.Y.C.C.N.P.A.C.T.G.C.Y}$PEPTIDE1,PEPTIDE1,1:R3-6:R3|PEPTIDE1,PEPTIDE1,2:R3-10:R3|PEPTIDE1,PEPTIDE1,5:R3-13:R3$$$V2.0)
I-125 binding assay (GC-C): +++
activity in the cGMP accumulation assay (T84 cells (GC-C)): lower than the STa peptide
CGMP accumulation assay (T84 cells (GC-C)): +++
activity in the cGMP accumulation assay (T84 cells (GC-C); second experiment): lower than the STa peptide

H2N Asn Thr Phe Tyr Cys Cys Glu Leu Cys Cys Asn Pro Ala Cys Ala Gly Cys Tyr COOH [STa(1-18)]
I-125 binding assay (GC-C): +++
CGMP accumulation assay (T84 cells (GC-C)): ++++
